According to PubChem BioAssay (NCI):
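The compound was tested at five concentrations on cells cultured in 96-well plates, with a 48-hour exposure period. TGI: concentration producing complete growth inhibition.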

Assays:
Assay in all cases: NCI tumour cell line growth inhibition, 48 h
SF-539 CNS = system: SF-539 CNS
SR leukemia = system: SR leukemia
SF-268 CNS = system: SF-268 CNS
MDA-MB-435 = system: MDA-MB-435
786-0 renal = system: 786-0 renal
U251 CNS = system: U251 CNS
MDA-MB-231 breast = system: MDA-MB-231 breast
OVCAR-8 ovarian = system: OVCAR-8 ovarian
SK-MEL-5 melanoma = system: SK-MEL-5 melanoma
MOLT-4 leukemia = system: MOLT-4 leukemia
OVCAR-4 ovarian = system: OVCAR-4 ovarian
SK-OV-3 ovarian = system: SK-OV-3 ovarian
IGROV1 ovarian = system: IGROV1 ovarian
EKVX NSCLC = system: EKVX NSCLC
HCC-2998 colon = system: HCC-2998 colon
SNB-19 CNS = system: SNB-19 CNS
CAKI-1 renal = system: CAKI-1 renal
SF-295 CNS = system: SF-295 CNS
NCI-H460 lung = system: NCI-H460 lung
NCI/ADR-RES ovarian = system: NCI/ADR-RES ovarian
NCI-H522 lung = system: NCI-H522 lung
MCF7 breast = system: MCF7 breast
M14 melanoma = system: M14 melanoma
MALME-3M melanoma = system: MALME-3M melanoma
LOX IMVI melanoma = system: LOX IMVI melanoma
CCRF-CEM leukemia = system: CCRF-CEM leukemia
ACHN renal = system: ACHN renal
A549 NSCLC = system: A549 NSCLC
PC-3 prostate = system: PC-3 prostate
UACC-62 melanoma = system: UACC-62 melanoma
HOP-92 NSCLC = system: HOP-92 NSCLC
SN12C renal = system: SN12C renal
RXF 393 renal = system: RXF 393 renal
DU-145 prostate = system: DU-145 prostate
TK-10 renal = system: TK-10 renal
OVCAR-5 ovarian = system: OVCAR-5 ovarian
HCT-116 colon = system: HCT-116 colon
HL-60(TB) leukemia = system: HL-60(TB) leukemia
SK-MEL-2 melanoma = system: SK-MEL-2 melanoma
SK-MEL-28 melanoma = system: SK-MEL-28 melanoma
BT-549 breast = system: BT-549 breast
SW-620 colon = system: SW-620 colon
NCI-H226 lung = system: NCI-H226 lung
UO-31 renal = system: UO-31 renal
HT29 colon = system: HT29 colon
RPMI-8226 leukemia = system: RPMI-8226 leukemia
KM12 colon = system: KM12 colon
HCT-15 colon = system: HCT-15 colon
T-47D breast = system: T-47D breast
MDA-N = system: MDA-N
UACC-257 melanoma = system: UACC-257 melanoma
NCI-H23 lung = system: NCI-H23 lung
OVCAR-3 ovarian = system: OVCAR-3 ovarian
HOP-62 NSCLC = system: HOP-62 NSCLC
HS 578T breast = system: HS 578T breast
K-562 leukemia = system: K-562 leukemia
COLO 205 colon = system: COLO 205 colon
SNB-75 CNS = system: SNB-75 CNS
A498 renal = system: A498 renal
LXFL 529 NSCLC = system: LXFL 529 NSCLC
SNB-78 CNS = system: SNB-78 CNS
KM20L2 colon = system: KM20L2 colon
DMS 273 small cell lung = system: DMS 273 small cell lung
DLD-1 colon = system: DLD-1 colon
DMS 114 small cell lung = system: DMS 114 small cell lung

With COC(=O)C(Cc1c[nH]c2ccccc12)N=C1Nc2ccncc2S(=O)(=O)N1c1ccccc1 (configuration not stated) the TGI (SF-539 CNS) was 35 µM, the TGI (SR leukemia) was 42.1 µM and the TGI (SF-268 CNS) was > 100 µM. For the same compound, the TGI (MDA-MB-435) was 87.3 µM, the TGI (786-0 renal) was > 100 µM and the TGI (U251 CNS) was > 100 µM. The TGI (MDA-MB-231 breast) was > 100 µM, the TGI (OVCAR-8 ovarian) was > 100 µM and the TGI (SK-MEL-5 melanoma) was 30 µM. The TGI (MOLT-4 leukemia) was 35.1 µM, the TGI (OVCAR-4 ovarian) was 75.7 µM and the TGI (SK-OV-3 ovarian) was > 100 µM. For the same compound, the TGI (IGROV1 ovarian) was 98.7 µM, the TGI (EKVX NSCLC) was > 100 µM and the TGI (HCC-2998 colon) was 60.8 µM. For the same compound, the TGI (SNB-19 CNS) was > 100 µM, the TGI (CAKI-1 renal) was > 100 µM and the TGI (SF-295 CNS) was > 100 µM. The TGI (NCI-H460 lung) was > 100 µM, the TGI (NCI/ADR-RES ovarian) was > 100 µM and the TGI (NCI-H522 lung) was > 100 µM. The TGI (MCF7 breast) was > 100 µM, the TGI (M14 melanoma) was > 100 µM and the TGI (MALME-3M melanoma) was 40.5 µM. The TGI (LOX IMVI melanoma) was 69.3 µM, the TGI (CCRF-CEM leukemia) was 32.2 µM and the TGI (ACHN renal) was > 100 µM. For the same compound, the TGI (A549 NSCLC) was > 100 µM, the TGI (PC-3 prostate) was 54 µM and the TGI (UACC-62 melanoma) was 58.2 µM. For the same compound, the TGI (HOP-92 NSCLC) was 54.8 µM, the TGI (SN12C renal) was > 100 µM and the TGI (RXF 393 renal) was 56.8 µM. For the same compound, the TGI (DU-145 prostate) was > 100 µM, the TGI (TK-10 renal) was > 100 µM and the TGI (OVCAR-5 ovarian) was > 100 µM. For the same compound, the TGI (HCT-116 colon) was > 100 µM, the TGI (HL-60(TB) leukemia) was 0.727 µM and the TGI (SK-MEL-2 melanoma) was 68.5 µM. The TGI (SK-MEL-28 melanoma) was > 100 µM, the TGI (BT-549 breast) was > 100 µM and the TGI (SW-620 colon) was 99.3 µM. For the same compound, the TGI (NCI-H226 lung) was 61.4 µM, the TGI (UO-31 renal) was > 100 µM and the TGI (HT29 colon) was 44.9 µM. For the same compound, the TGI (RPMI-8226 leukemia) was 29.3 µM, the TGI (KM12 colon) was > 100 µM and the TGI (HCT-15 colon) was > 100 µM. The TGI (T-47D breast) was 51 µM, the TGI (MDA-N) was > 100 µM and the TGI (UACC-257 melanoma) was > 100 µM. The TGI (NCI-H23 lung) was > 100 µM, the TGI (OVCAR-3 ovarian) was 99.5 µM and the TGI (HOP-62 NSCLC) was > 100 µM. The TGI (HS 578T breast) was > 100 µM, the TGI (K-562 leukemia) was 51.8 µM and the TGI (COLO 205 colon) was 33.9 µM. The TGI (SNB-75 CNS) was 75 µM and the TGI (A498 renal) was > 100 µM.
In the case of O/N=C(\c1ccccc1)N1CCCCC1, the TGI (SF-539 CNS) is reported as > 100 µM, the TGI (SR leukemia) is reported as > 100 µM and the TGI (SF-268 CNS) is reported as > 100 µM. For the same compound, the TGI (786-0 renal) was > 100 µM, the TGI (LXFL 529 NSCLC) was > 100 µM and the TGI (U251 CNS) was > 100 µM. For the same compound, the TGI (OVCAR-8 ovarian) was > 100 µM, the TGI (OVCAR-4 ovarian) was > 100 µM and the TGI (SNB-78 CNS) was > 100 µM. For the same compound, the TGI (HCC-2998 colon) was > 100 µM, the TGI (SNB-19 CNS) was > 100 µM and the TGI (CAKI-1 renal) was > 100 µM. The TGI (SF-295 CNS) was > 100 µM, the TGI (NCI-H460 lung) was > 100 µM and the TGI (NCI-H522 lung) was > 100 µM. The TGI (M14 melanoma) was > 100 µM, the TGI (LOX IMVI melanoma) was > 100 µM and the TGI (KM20L2 colon) was > 100 µM. For the same compound, the TGI (A549 NSCLC) was > 100 µM, the TGI (HOP-92 NSCLC) was > 100 µM and the TGI (SN12C renal) was > 100 µM. For the same compound, the TGI (OVCAR-5 ovarian) was > 100 µM, the TGI (HCT-116 colon) was > 100 µM and the TGI (HL-60(TB) leukemia) was > 100 µM. The TGI (SK-MEL-2 melanoma) was > 100 µM, the TGI (SW-620 colon) was > 100 µM and the TGI (UO-31 renal) was > 100 µM. The TGI (HT29 colon) was > 100 µM, the TGI (DMS 273 small cell lung) was > 100 µM and the TGI (DLD-1 colon) was > 100 µM. The TGI (KM12 colon) was > 100 µM, the TGI (UACC-257 melanoma) was > 100 µM and the TGI (NCI-H23 lung) was > 100 µM. For the same compound, the TGI (DMS 114 small cell lung) was > 100 µM, the TGI (OVCAR-3 ovarian) was > 100 µM and the TGI (HOP-62 NSCLC) was > 100 µM. The TGI (COLO 205 colon) was > 100 µM and the TGI (SNB-75 CNS) was > 100 µM.
